Experimental data taken from ChEMBL document CHEMBL1255302, “Genetic structures at the origin of acquisition of the beta-lactamase bla KPC gene” (2008).
In brackets after ≈: the same amount, converted by molar mass.

How the values were obtained:
Format in all cases: functional
[1] = test system: Klebsiella pneumoniae; experiment: Antibacterial activity against Klebsiella pneumoniae YC by Etest method
[2] = test system: Escherichia coli; experiment: Antibacterial activity against Escherichia coli harboring pNGR plasmid expressing blaKPC gene by Etest method
[3] = test system: Pseudomonas aeruginosa; experiment: Antibacterial activity against Pseudomonas aeruginosa KG2505 by Etest method in presence of beta-lactamase inhibitor clavulanic acid
[4] = test system: Pseudomonas aeruginosa; experiment: Antibacterial activity against Pseudomonas aeruginosa 2404 plasmid by Etest method in presence of beta-lactamase inhibitor clavulanic acid
[5] = test system: Pseudomonas aeruginosa; experiment: Antibacterial activity against Pseudomonas aeruginosa KG2505 harboring pCOL plasmid by Etest method
[6] = test system: Escherichia coli; experiment: Antibacterial activity against Escherichia coli DH10B expressing blaKPC gene by Etest method
[7] = test system: Klebsiella pneumoniae; experiment: Antibacterial activity against Klebsiella pneumoniae GR by Etest method
[8] = test system: Klebsiella pneumoniae; experiment: Antibacterial activity against Klebsiella pneumoniae 633 by Etest method in presence of beta-lactamase inhibitor clavulanic acid
[9] = test system: Escherichia coli; experiment: Antibacterial activity against Escherichia coli harboring pBC2303 expressing blaKPC gene plasmid by Etest method
[10] = test system: Escherichia coli; experiment: Antibacterial activity against Escherichia coli harboring pBC633 plasmid expressing blaKPC gene by Etest method
[11] = test system: Escherichia coli; experiment: Antibacterial activity against Escherichia coli harboring pNYC plasmid expressing blaKPC gene by Etest method in presence of beta-lactamase inhibitor clavulanic acid
[12] = test system: Klebsiella pneumoniae; experiment: Antibacterial activity against Klebsiella pneumoniae GR by Etest method in presence of beta-lactamase inhibitor clavulanic acid
[13] = test system: Escherichia coli; experiment: Antibacterial activity against Escherichia coli DH10B expressing blaKPC gene by Etest method in presence of beta-lactamase inhibitor clavulanic acid
[14] = test system: Escherichia coli; experiment: Antibacterial activity against Escherichia coli harboring pNYC plasmid expressing blaKPC gene by Etest method
[15] = test system: Escherichia coli; experiment: Antibacterial activity against Escherichia coli harboring pCOL plasmid expressing blaKPC gene by Etest method in presence of beta-lactamase inhibitor clavulanic acid
[16] = test system: Klebsiella pneumoniae; experiment: Antibacterial activity against Klebsiella pneumoniae YC by Etest method in presence of beta-lactamase inhibitor clavulanic acid
[17] = test system: Escherichia coli; experiment: Antibacterial activity against Escherichia coli harboring pRYC plasmid expressing blaKPC gene by Etest method
[18] = test system: Escherichia coli; experiment: Antibacterial activity against Escherichia coli harboring pBC2303 expressing blaKPC gene plasmid by Etest method in presence of beta-lactamase inhibitor clavulanic acid
[19] = test system: Pseudomonas aeruginosa; experiment: Antibacterial activity against Pseudomonas aeruginosa KG2505 harboring pCOL plasmid by Etest method in presence of beta-lactamase inhibitor clavulanic acid
[20] = test system: Klebsiella pneumoniae; experiment: Antibacterial activity against Klebsiella pneumoniae KN2303 by Etest method in presence of beta-lactamase inhibitor clavulanic acid
[21] = test system: Escherichia coli; experiment: Antibacterial activity against Escherichia coli harboring pCOL plasmid expressing blaKPC gene by Etest method
[22] = test system: Escherichia coli; experiment: Antibacterial activity against Escherichia coli harboring pRYC plasmid expressing blaKPC gene by Etest method in presence of beta-lactamase inhibitor clavulanic acid
[23] = test system: Klebsiella pneumoniae; experiment: Antibacterial activity against Klebsiella pneumoniae KN2303 by Etest method
[24] = test system: Klebsiella pneumoniae; experiment: Antibacterial activity against Klebsiella pneumoniae 633 by Etest method
[25] = test system: Escherichia coli; experiment: Antibacterial activity against Escherichia coli harboring pBC633 plasmid expressing blaKPC gene by Etest method in presence of beta-lactamase inhibitor clavulanic acid
[26] = test system: Pseudomonas aeruginosa; experiment: Antibacterial activity against Pseudomonas aeruginosa 2404 plasmid by Etest method
[27] = test system: Escherichia coli; experiment: Antibacterial activity against Escherichia coli harboring pNGR plasmid expressing blaKPC gene by Etest method in presence of beta-lactamase inhibitor clavulanic acid
[28] = test system: Pseudomonas aeruginosa; experiment: Antibacterial activity against Pseudomonas aeruginosa KG2505 by Etest method

Compound | MIC [1] [µg/mL] | MIC [2] [µg/mL] | MIC [3] [µg/mL] | MIC [4] [µg/mL] | MIC [5] [µg/mL] | MIC [6] [µg/mL] | MIC [7] [µg/mL] | MIC [8] [µg/mL] | MIC [9] [µg/mL] | MIC [10] [µg/mL] | MIC [11] [µg/mL] | MIC [12] [µg/mL] | MIC [13] [µg/mL] | MIC [14] [µg/mL] | MIC [17] [µg/mL] | MIC [21] [µg/mL] | MIC [23] [µg/mL] | MIC [24] [µg/mL] | MIC [26] [µg/mL] | MIC [28] [µg/mL] | further results
C[C@@H](O)[C@H]1C(=O)N2C(C(=O)O)=C(S[C@@H]3CN[C@H](C(=O)Nc4cccc(C(=O)O)c4)C3)[C@H](C)[C@H]12 | 24 (≈ 50.5 µM) | 0.38 (≈ 0.799 µM) | 0.03 | > 32 | > 32 | 0.25 (≈ 0.526 µM) | 12 (≈ 25.2 µM) | 8 | 0.25 (≈ 0.526 µM) | 2 (≈ 4.21 µM) | 0.05 | 6 | 0.05 | 0.5 (≈ 1.05 µM) | 4 (≈ 8.41 µM) | 0.004 (≈ 0.00841 µM) | > 32 | > 32 | > 32 | 0.25 (≈ 0.526 µM) | MIC [15]: 0.002 µg/mL; MIC [16]: 2 µg/mL; MIC [18]: 0.02 µg/mL; MIC [19]: 2 µg/mL; MIC [20]: > 32 µg/mL; MIC [22]: 1.5 µg/mL; MIC [25]: 0.19 µg/mL; MIC [27]: 0.01 µg/mL
CO/N=C(\C(=O)N[C@@H]1C(=O)N2C(C(=O)[O-])=C(C[N+]3(C)CCCC3)CS[C@H]12)c1csc(N)n1 | – | 1.5 (≈ 3.12 µM) | – | – | > 32 | 1 (≈ 2.08 µM) | > 32 | – | 3 (≈ 6.24 µM) | 4 (≈ 8.32 µM) | – | – | – | 1 (≈ 2.08 µM) | > 32 | 0.02 (≈ 0.0416 µM) | > 32 | > 32 | > 32 | 0.5 (≈ 1.04 µM) | –
CC1(C)S[C@@H]2[C@H](NC(=O)[C@H](N)c3ccc(O)cc3)C(=O)N2[C@H]1C(=O)O [AMOXICILLIN] | > 256 | > 256 | 0.25 | > 256 | > 256 | > 256 | > 256 | 32 | > 256 | > 256 | 32 | 48 | 24 | > 256 | > 256 | 2 (≈ 5.47 µM) | > 256 | > 256 | > 256 | 0.25 (≈ 0.684 µM) | MIC [15]: 2 µg/mL; MIC [16]: 32 µg/mL; MIC [18]: 24 µg/mL; MIC [19]: > 256 µg/mL; MIC [20]: > 256 µg/mL; MIC [22]: 64 µg/mL; MIC [25]: 32 µg/mL; MIC [27]: 24 µg/mL
C[C@H]1[C@H](NC(=O)/C(=N\OC(C)(C)C(=O)O)c2csc(N)n2)C(=O)N1S(=O)(=O)O [AZTREONAM] | – | 16 (≈ 36.7 µM) | – | – | – | 24 (≈ 55.1 µM) | – | – | 192 (≈ 441 µM) | – | – | – | – | 16 (≈ 36.7 µM) | – | – | – | – | – | – | –
CO/N=C(\C(=O)N[C@@H]1C(=O)N2C(C(=O)O)=C(COC(C)=O)CS[C@H]12)c1csc(N)n1 [CEFOTAXIME] | > 32 | 4 (≈ 8.78 µM) | 0.19 | > 32 | > 32 | 3 (≈ 6.59 µM) | > 32 | > 32 | 16 (≈ 35.1 µM) | 32 (≈ 70.3 µM) | 2 | 32 | 0.25 | 4 (≈ 8.78 µM) | > 32 | 0.05 (≈ 0.11 µM) | > 32 | > 32 | > 32 | 0.25 (≈ 0.549 µM) | MIC [15]: 0.01 µg/mL; MIC [16]: 16 µg/mL; MIC [18]: 0.38 µg/mL; MIC [19]: > 32 µg/mL; MIC [20]: > 32 µg/mL; MIC [22]: > 32 µg/mL; MIC [25]: 3 µg/mL; MIC [27]: 0.38 µg/mL
CO[C@@]1(NC(=O)Cc2cccs2)C(=O)N2C(C(=O)O)=C(COC(N)=O)CS[C@@H]21 [CEFOXITIN] | > 32 | 4 (≈ 9.36 µM) | – | – | > 32 | 2 (≈ 4.68 µM) | > 32 | – | 8 (≈ 18.7 µM) | > 32 | – | – | – | 2 (≈ 4.68 µM) | > 32 | 2 (≈ 4.68 µM) | > 32 | > 32 | > 64 | 0.25 (≈ 0.585 µM) | –
CC(C)(O/N=C(\C(=O)N[C@@H]1C(=O)N2C(C(=O)[O-])=C(C[n+]3ccccc3)CS[C@H]12)c1csc(N)n1)C(=O)O [CEFTAZIDIME] | 64 (≈ 117 µM) | 4 (≈ 7.32 µM) | – | – | > 256 | 8 (≈ 14.6 µM) | > 256 | – | 256 (≈ 468 µM) | 32 (≈ 58.5 µM) | – | – | – | 4 (≈ 7.32 µM) | > 256 | 0.19 (≈ 0.348 µM) | > 256 | > 256 | > 256 | 1 (≈ 1.83 µM) | –
CC(=O)OCC1=C(C(=O)O)N2C(=O)[C@@H](NC(=O)Cc3cccs3)[C@H]2SC1 [CEPHALOTHIN] | > 256 | > 256 | – | – | > 256 | 256 (≈ 646 µM) | > 256 | – | > 256 | > 256 | – | – | – | > 256 | > 256 | 2 (≈ 5.04 µM) | > 256 | > 256 | > 256 | 2 (≈ 5.04 µM) | –
C[C@@H](O)[C@H]1C(=O)N2C(C(=O)O)=C(SCCNC=N)C[C@H]12 [IMIPENEM ANHYDROUS] | 4 (≈ 13.4 µM) | 1.5 (≈ 5.01 µM) | 0.19 | > 32 | > 32 | 1.5 (≈ 5.01 µM) | 12 (≈ 40.1 µM) | 0.75 | 1 (≈ 3.34 µM) | 6 (≈ 20 µM) | 2 | 0.75 | 0.38 | 8 (≈ 26.7 µM) | 12 (≈ 40.1 µM) | 0.19 (≈ 0.635 µM) | > 32 | > 32 | > 32 | 0.19 (≈ 0.635 µM) | MIC [15]: 0.1 µg/mL; MIC [16]: 2 µg/mL; MIC [19]: 2 µg/mL; MIC [20]: > 32 µg/mL; MIC [22]: 3 µg/mL; MIC [25]: 0.75 µg/mL
C[C@@H](O)[C@H]1C(=O)N2C(C(=O)O)=C(S[C@@H]3CN[C@H](C(=O)N(C)C)C3)[C@H](C)[C@H]12 [MEROPENEM] | 2 (≈ 5.22 µM) | 0.38 (≈ 0.991 µM) | 0.01 | > 32 | > 32 | 0.38 (≈ 0.991 µM) | 6 (≈ 15.6 µM) | 2 | 0.38 (≈ 0.991 µM) | 2 (≈ 5.22 µM) | 0.25 | 3 | 0.1 | 2 (≈ 5.22 µM) | 3 (≈ 7.82 µM) | 0.01 (≈ 0.0261 µM) | > 32 | 4 (≈ 10.4 µM) | > 32 | 0.05 (≈ 0.13 µM) | MIC [15]: 0.002 µg/mL; MIC [16]: 1 µg/mL; MIC [18]: 0.12 µg/mL; MIC [19]: 3 µg/mL; MIC [20]: > 32 µg/mL; MIC [22]: 2 µg/mL; MIC [25]: 0.38 µg/mL; MIC [27]: 0.01 µg/mL
CCN1CCN(C(=O)N[C@@H](C(=O)N[C@@H]2C(=O)N3[C@@H]2SC(C)(C)[C@@H]3C(=O)O)c2ccccc2)C(=O)C1=O [PIPERACILLIN] | > 256 | 128 (≈ 247 µM) | – | – | > 256 | > 256 | > 256 | – | > 256 | > 256 | – | – | – | > 256 | > 256 | 1.5 (≈ 2.9 µM) | > 256 | > 256 | > 256 | 0.38 (≈ 0.734 µM) | –
CC1(C)S[C@@H]2[C@H](NC(=O)[C@H](C(=O)O)c3ccsc3)C(=O)N2[C@H]1C(=O)O [TICARCILLIN] | > 256 | > 256 | 0.25 | > 256 | > 256 | > 256 | > 256 | > 256 | > 256 | > 256 | > 256 | > 256 | > 256 | > 256 | > 256 | 2 (≈ 5.2 µM) | > 256 | > 256 | > 256 | 0.38 (≈ 0.988 µM) | MIC [15]: 1.5 µg/mL; MIC [16]: > 256 µg/mL; MIC [18]: > 256 µg/mL; MIC [19]: > 256 µg/mL; MIC [20]: > 256 µg/mL; MIC [22]: > 256 µg/mL; MIC [25]: > 256 µg/mL; MIC [27]: > 256 µg/mL
